Experimental data reported in patent US9266939B2, “Compositions comprising natriuretic peptides and methods of use thereof” (Alexion Pharmaceuticals, Inc., priority 2010, dated 2016).
Marks after values point to notes of the source that are not given here.

Assays:
NPR-B = target: T1, NPR-B (Homo sapiens, UniProt P20594); test: Membrane guanylyl cyclase (cGMP) assay, NPR-B; type: biochemical; details: second NPR-B membrane assay (FIG. 21B)
T1 sequence (P20594 23-1047): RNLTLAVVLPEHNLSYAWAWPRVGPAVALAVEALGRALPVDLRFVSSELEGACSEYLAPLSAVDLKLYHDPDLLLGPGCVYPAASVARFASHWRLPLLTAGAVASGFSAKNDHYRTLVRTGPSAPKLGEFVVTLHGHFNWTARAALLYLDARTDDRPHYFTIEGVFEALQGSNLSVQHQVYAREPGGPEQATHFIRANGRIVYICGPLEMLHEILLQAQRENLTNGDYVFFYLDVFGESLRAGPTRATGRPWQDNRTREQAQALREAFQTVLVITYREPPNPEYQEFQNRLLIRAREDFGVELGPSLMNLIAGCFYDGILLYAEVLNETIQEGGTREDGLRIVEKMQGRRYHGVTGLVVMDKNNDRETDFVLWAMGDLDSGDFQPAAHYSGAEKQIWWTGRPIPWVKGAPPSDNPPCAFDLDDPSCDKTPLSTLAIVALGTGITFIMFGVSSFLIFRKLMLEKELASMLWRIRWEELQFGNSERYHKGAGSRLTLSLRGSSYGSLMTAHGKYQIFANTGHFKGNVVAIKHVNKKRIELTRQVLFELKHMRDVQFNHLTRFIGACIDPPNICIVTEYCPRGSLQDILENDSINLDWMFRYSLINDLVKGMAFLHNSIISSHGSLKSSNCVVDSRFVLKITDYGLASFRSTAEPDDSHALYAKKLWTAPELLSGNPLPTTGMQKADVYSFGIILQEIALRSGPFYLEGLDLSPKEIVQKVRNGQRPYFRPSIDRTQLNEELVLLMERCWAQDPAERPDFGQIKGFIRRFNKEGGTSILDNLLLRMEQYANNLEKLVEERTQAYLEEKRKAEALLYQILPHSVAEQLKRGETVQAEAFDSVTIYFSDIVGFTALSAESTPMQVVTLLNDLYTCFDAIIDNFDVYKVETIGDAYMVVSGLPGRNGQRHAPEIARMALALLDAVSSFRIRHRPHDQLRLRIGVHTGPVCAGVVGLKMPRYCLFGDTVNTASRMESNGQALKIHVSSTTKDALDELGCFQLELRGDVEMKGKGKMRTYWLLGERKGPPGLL

Fgfr3^369/+ mice = test: Efficacy of SC NC2st on rescue of the ACH bone phenotype in Fgfr3^369/+ mice; type: in vivo; details: 61 days
Excerpt: The study was designed to evaluate the effect of daily subcutaneous (SC) administration of NC2 Streptag (NC2st) on rescue of the achondroplasia skeletal disorders in the mouse model of the disease, the Fgfr3^369/+ mice.
Fgfr3^369/+ mice were created by an amino acid substitution (Gly to Cys) at position 369 in the mouse Fibroblast Growth Factor Receptor 3 (Fgfr3) gene (Chen et al., J. Clin. Invest. 104(11): 1517-1525, 1999). Substitution 369 (Gly369Cys) in mouse Fgfr3 gene causes dwarfism with features mimicking human achondroplasia. […] Thus, the Fgfr3^369+ mouse is an appropriate model for non-clinical studies evaluating the treatment of achondroplasia.
The study was an open label parallel and randomized control study. Treatments were open label, and Table 5 provides details of the treatment groups.
Injections were scheduled twice daily at approximately 8:00 to 10:00 AM and 8:00 to 10:00 PM. The dose volume was set at 4 ml/kg. The actual volume administered to each mouse was calculated and adjusted based on the daily body weight of each animal measured prior to the AM injection. Vehicle or NC2st was injected SC twice daily into the scapular or lumbar region of Fgfr3^369/+ animals from the third day after birth to 63 days of age.
Ex vivo radiographs of whole body, rib cage and skull were taken using a Faxitron model MX-20 DC4 under constant conditions (26 kV, 10 sec at 1×, 3× and 3× magnification, respectively). Bone measurements were performed on the radiographic images of all animals in a blinded fashion using the software Image Processing and Analysis in Java (ImageJ).
Bone samples were cleaned of excess tissue (not scraped) and fixed. Length of femur and tibia was measured using a caliper.

[1] = Tx-100: 100 mg/kg SC twice daily

NC2st: Fc-CNP fusion: Strep-tag II, TEV site, human IgG-1 Fc, 16-amino acid glycine-rich linker, CNP22; SEQ ID NO: 502
efficacy relative to CNP (NPR-B): 61%
potency relative to CNP (times less than that of CNP) (NPR-B): 19 times
Cervical vertebrae length, % change vs Vehicle (Fgfr3^369/+ mice; Tx-10: 10 mg/kg SC twice daily): +17.6%*
Femur length, % change vs Vehicle (Fgfr3^369/+ mice; Tx-10: 10 mg/kg SC twice daily): +3.85%*
Lumbar vertebrae length, % change vs Vehicle (Fgfr3^369/+ mice; Tx-10: 10 mg/kg SC twice daily): +8.64%*
Naso-anal length, % change vs Vehicle (Fgfr3^369/+ mice; Tx-10: 10 mg/kg SC twice daily): +8.99%*
Neck-anal length, % change vs Vehicle (Fgfr3^369/+ mice; Tx-10: 10 mg/kg SC twice daily): +12.4%*
Occipital-front distance, % change vs Vehicle (Fgfr3^369/+ mice; Tx-10: 10 mg/kg SC twice daily): +0.89%
Skull Circularity index, % change vs Vehicle (Fgfr3^369/+ mice; Tx-10: 10 mg/kg SC twice daily): −1.52%
Sternum length, % change vs Vehicle (Fgfr3^369/+ mice; Tx-10: 10 mg/kg SC twice daily): +6.67%*
Tail length, % change vs Vehicle (Fgfr3^369/+ mice; Tx-10: 10 mg/kg SC twice daily): +7.38%*
Thoracic vertebrae length, % change vs Vehicle (Fgfr3^369/+ mice; Tx-10: 10 mg/kg SC twice daily): +11.6%*
Tibia length, % change vs Vehicle (Fgfr3^369/+ mice; Tx-10: 10 mg/kg SC twice daily): +6.50%*
Total CTL vertebrae length, % change vs Vehicle (Fgfr3^369/+ mice; Tx-10: 10 mg/kg SC twice daily): +11.6%*
Cervical vertebrae length, % change vs Vehicle (Fgfr3^369/+ mice; [1]): +24.3%*
Femur length, % change vs Vehicle (Fgfr3^369/+ mice; [1]): +3.85%*
Lumbar vertebrae length, % change vs Vehicle (Fgfr3^369/+ mice; [1]): +13.6%*
Naso-anal length, % change vs Vehicle (Fgfr3^369/+ mice; [1]): +14.3%*
Neck-anal length, % change vs Vehicle (Fgfr3^369/+ mice; [1]): +21.1%*
Occipital-front distance, % change vs Vehicle (Fgfr3^369/+ mice; [1]): +0.76%
Skull Circularity index, % change vs Vehicle (Fgfr3^369/+ mice; [1]): −2.88%*
Sternum length, % change vs Vehicle (Fgfr3^369/+ mice; [1]): +13.7%*
Tail length, % change vs Vehicle (Fgfr3^369/+ mice; [1]): +7.22%*
Thoracic vertebrae length, % change vs Vehicle (Fgfr3^369/+ mice; [1]): +25.3%*
Tibia length, % change vs Vehicle (Fgfr3^369/+ mice; [1]): +8.13%*
Total CTL vertebrae length, % change vs Vehicle (Fgfr3^369/+ mice; [1]): +20.9%*
